Molecules are shown by their SMILES. Bounds are passed on as bounds.

In one assay the target is T1, recombinant glucosyltransferase domain of C. difficile Toxin B/TcdB (Clostridioides difficile, UniProt P18177).
T1 construct: 6-His (C); purchased R&D Systems 6246-GT
T1 sequence (P18177 1-543): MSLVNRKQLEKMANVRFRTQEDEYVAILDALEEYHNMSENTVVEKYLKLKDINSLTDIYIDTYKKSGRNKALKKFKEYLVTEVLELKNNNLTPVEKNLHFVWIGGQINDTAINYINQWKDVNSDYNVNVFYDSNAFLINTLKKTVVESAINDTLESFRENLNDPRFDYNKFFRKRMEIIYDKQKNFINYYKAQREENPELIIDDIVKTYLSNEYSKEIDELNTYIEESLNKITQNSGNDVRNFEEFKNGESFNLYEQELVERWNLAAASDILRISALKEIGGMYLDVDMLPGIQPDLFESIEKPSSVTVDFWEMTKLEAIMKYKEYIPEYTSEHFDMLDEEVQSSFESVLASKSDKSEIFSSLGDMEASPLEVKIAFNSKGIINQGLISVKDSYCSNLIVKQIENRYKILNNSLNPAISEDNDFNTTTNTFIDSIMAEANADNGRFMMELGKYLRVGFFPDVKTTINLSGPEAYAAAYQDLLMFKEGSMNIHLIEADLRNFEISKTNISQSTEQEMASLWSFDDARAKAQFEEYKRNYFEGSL
Put plainly: biochemical.
Conditions: not given
As usually defined, the IC50 is the point on the concentration scale where inhibition reaches its midpoint. As for `Cc1nnc(NC(=O)c2ccc(CN3C(=O)c4ccc(Cl)cc4NC(=O)[C@H]3Cc3ccccn3)cc2)[nH]1` [Example 4bj, (R)-4-((8-chloro-2,5-dioxo-3-(pyridin-2-ylmethyl)-2,3-dihydro-1H-benzo[e][1,4]diazepin-4(5H)-yl)methyl)-N-(5-methyl-4H-1,2,4-triazol-3-yl)benzamide], the IC50 fell in the range of 1000 to 10000 nM.
Regarding `COc1ccc2c(c1)NC(=O)[C@@H](Cc1ccc(Cl)c(Cl)c1)N(Cc1ccc(C(=O)O)cc1)C2=O` [Example 2f], the IC50 was in the range of 1000 to 10000 nM.
For the compound `O=C(O)c1ccc(CN2C(=O)c3ccc(Cl)cc3NC(=O)[C@H]2Cc2ccccn2)cc1Cl` [Example 7a, (R)-2-Chloro-4-((8-chloro-2,5-dioxo-3-(pyridin-2-ylmethyl)-2,3-dihydro-1H-benzo[e][1,4]diazepin-4(5H)-yl)methyl)benzoic Acid], the 50% inhibitory concentration (IC50) was in the range of 100 to 999 nM.
`O=C1Nc2cc(Cl)ccc2C(=O)N(C[C@H]2CC[C@H](C(=O)Nc3ccccn3)CC2)[C@@H]1Cc1cccnc1` [Example 35l]: the half-maximal inhibitory concentration (IC50) lay within 100 to 999 nM.
`Cn1cccc(C(=O)c2ccc(CN3C(=O)c4ccc(Cl)cc4NC(=O)[C@H]3Cc3ccccn3)cc2)c1=O` [Example 53a]: the half-maximal inhibitory concentration (IC50) lay in the range of 100 to 999 nM.
Consider `CCc1ccc(NC(=O)c2ccc(CN3C(=O)c4ccc(Cl)cc4NC(=O)[C@H]3C)cc2)nc1` [Example 4ay, (R)-4-((8-chloro-3-methyl-2,5-dioxo-2,3-dihydro-1H-benzo[e][1,4]diazepin-4(5H)-yl)methyl)-N-(5-ethylpyridin-2-yl)benzamide], for which the IC50 was in the range of 100 to 999 nM.
Consider `COc1ccc(C[C@@H]2C(=O)Nc3cc(Cl)ccc3C(=O)N2Cc2ccc(C(=O)Nc3ccccn3)cc2)cc1` [Example 35d], for which the half-maximal inhibitory concentration (IC50) is 100 to 999 nM.
For the compound `Cc1ccc(C(=O)Nc2ccc(CN3C(=O)c4ccc(Cl)cc4NC(=O)[C@H]3Cc3ccccn3)cc2)nc1` [Example 26f], the IC50 is below 100 nM.
As for `Cc1ccc(NC(=O)c2ccc(CN3C(=O)c4ccc(Cl)cc4NC(=O)[C@@H]3Cc3cscn3)cc2)nc1` [Example 35a, (S)-4-((8-Chloro-2,5-dioxo-3-(thiazol-4-ylmethyl)-2,3-dihydro-1H-benzo[e][1,4]diazepin-4(5H)-yl)methyl)-N-(5-methylpyridin-2-yl)benzamide], the IC50 lay within 100 to 999 nM.
Same read-out and setting: in the case of `O=C(O)c1ccc(CN2C(=O)c3ccc(Cl)cc3NC(=O)[C@H]2Cc2ccncc2)cc1` [Example 1c] it was 10000 to 35000 nM; in that of `O=C(Nc1ccc(CN2C(=O)c3ccc(Cl)cc3NC(=O)[C@H]2Cc2ccccn2)cc1)c1ccncn1` [Example 27c], 100 to 999 nM; in that of `Cc1ccnc(NC(=O)c2ccc(CN3C(=O)c4ccc(Cl)cc4NC(=O)[C@H]3Cc3cccnc3)cc2)n1` [Example 5i, (R)-4-((8-chloro-2,5-dioxo-3-(pyridin-3-ylmethyl)-2,3-dihydro-1H-benzo[e][1,4]diazepin-4(5H)-yl)methyl)-N-(4-methylpyrimidin-2-yl)benzamide], below 100 nM.
The same measure, in the same setting: in the case of `O=C(N[C@H]1CC[C@H](CN2C(=O)c3ccc(Cl)cc3NC(=O)[C@H]2Cc2ccccn2)CC1)c1ccccn1` [Example 26j] it was 100 to 999 nM; in that of `C[C@@H]1C(=O)Nc2cc(Cl)ccc2C(=O)N1Cc1ccc(C(=O)Nc2ccc(N3CCN(C)CC3)cn2)cc1` [Example 4bh, (R)-4-((8-chloro-3-methyl-2,5-dioxo-2,3-dihydro-1H-benzo[e][1,4]diazepin-4(5H)-yl)methyl)-N-(5-(4-methylpiperazin-1-yl)pyridin-2-yl)benzamide], 100 to 999 nM; in that of `COc1ccc(NC(=O)c2ccc(S(=O)(=O)N3Cc4ccc(Cl)cc4NC(=O)[C@H]3Cc3ccccn3)cc2)nc1` [Example 19f, (R)-4-((8-chloro-2-oxo-3-(pyridin-2-ylmethyl)-2,3-dihydro-1H-benzo[e][1,4]diazepin-4(5H)-yl)sulfonyl)-N-(5-methoxypyridin-2-yl)benzamide], 100 to 999 nM.
Turning to `Cc1ccc(NC(=O)c2ccc(CN3C(=O)c4ccc(NC(=O)c5cccnc5)cc4NC(=O)[C@H]3C)cc2)nc1` [Example 18e, (R)-N-(3-methyl-4-(4-((5-methylpyridin-2-yl)carbamoyl)benzyl)-2,5-dioxo-2,3,4,5-tetrahydro-1H-benzo[e][1,4]diazepin-8-yl)nicotinamide], the IC50 is 1000 to 10000 nM.
Turning to `Cc1ccc(S(=O)(=O)NC(=O)c2ccc(CN3C(=O)c4ccc(Cl)cc4NC(=O)[C@H]3Cc3cccnc3)cc2)cc1` [Example 15e, (R)-4-((8-chloro-2,5-dioxo-3-(pyridin-3-ylmethyl)-2,3-dihydro-1H-benzo[e][1,4]diazepin-4(5H)-yl)methyl)-N-tosylbenzamide], the half-maximal inhibitory concentration (IC50) was 1000 to 10000 nM.
With `C[C@@H]1C(=O)Nc2cc(Cl)ccc2C(=O)N1Cc1ccc(C(=O)Nc2ccc(C(F)(F)F)cn2)c(-c2ccc3c(c2)OCO3)c1` [Example 54a], the IC50 lay within 1000 to 10000 nM.
The same measure, in the same setting: in the case of `O=C1CN(Cc2ccc(C(=O)O)cc2)C(=O)c2ccc(Cl)cc2N1` [Example 3o] it was 10000 to 35000 nM; in that of `O=C(Nc1nncs1)c1ccc(CN2C(=O)c3ccc(Cl)cc3NC(=O)[C@H]2Cc2ccccn2)cc1` [Example 4bp, (R)-4-((8-chloro-2,5-dioxo-3-(pyridin-2-ylmethyl)-2,3-dihydro-1H-benzo[e][1,4]diazepin-4(5H)-yl)methyl)-N-(1,3,4-thiadiazol-2-yl)benzamide], 100 to 999 nM.
The same measure, in the same setting: in the case of `Cc1noc(C)c1-c1cc(CN2C(=O)c3ccc(Cl)cc3NC(=O)[C@H]2Cc2ccccn2)ccc1C(=O)O` [Example 8t, 4-(((R)-8-chloro-2,5-dioxo-3-(pyridin-2-ylmethyl)-2,3-dihydro-1H-benzo[e][1,4]diazepin-4(5H)-yl)methyl)-2-(3,5-dimethylisoxazol-4-yl)benzoic acid] it was 1000 to 10000 nM; in that of `Cc1cc(C(=O)Nc2ccc(CN3C(=O)c4ccc(Cl)cc4NC(=O)[C@H]3Cc3ccccn3)cc2)no1` [Example 27g], 1000 to 10000 nM; in that of `Cc1ccc(NC(=O)c2ccc(CN3C(=O)c4ccc(Cl)cc4NC(=O)[C@H]3Cc3ccccn3)cc2)nc1` [Example 4x, (R)-4-((8-chloro-2,5-dioxo-3-(pyridin-2-ylmethyl)-2,3-dihydro-1H-benzo[e][1,4]diazepin-4(5H)-yl)methyl)-N-(5-methylpyridin-2-yl)benzamide], below 100 nM.
For the compound `O=C1Nc2cc(Cl)ccc2C(=O)N(Cc2ccc3c(c2)CCN(c2ccccn2)C3=O)[C@@H]1Cc1ccccn1` [Example 37a, (R)-8-Chloro-4-((1-oxo-2-(pyridin-2-yl)-1,2,3,4-tetrahydroisoquinolin-6-yl)methyl)-3-(pyridin-2-ylmethyl)-3,4-dihydro-1H-benzo[e][1,4]diazepine-2,5-dione], the half-inhibitory concentration (IC50) is 1000 to 10000 nM.
In the case of `NC(=O)c1ccc(CN2C(=O)c3ccc(Cl)cc3NC(=O)[C@H]2Cc2ccccn2)cc1` [Example 13d], the 50% inhibitory concentration (IC50) was 100 to 999 nM.
For `Cc1cccc(-c2cc(CN3C(=O)c4ccc(Cl)cc4NC(=O)[C@H]3Cc3ccccn3)ccc2C(=O)O)c1` [Example 8h, (R)-5-((8-chloro-2,5-dioxo-3-(pyridin-2-ylmethyl)-2,3-dihydro-1H-benzo[e][1,4]diazepin-4(5H)-yl)methyl)-3′-methyl-[1,1′-biphenyl]-2-carboxylic acid], the IC50 lay within 100 to 999 nM.
As to `O=C(Nc1ccc(F)cn1)c1ccc(CN2C(=O)c3ccc(Cl)cc3NC(=O)[C@H]2Cc2ccccn2)cc1F` [Example 6c, (R)-4-((8-chloro-2,5-dioxo-3-(pyridin-2-ylmethyl)-2,3-dihydro-1H-benzo[e][1,4]diazepin-4(5H)-yl)methyl)-2-fluoro-N-(5-fluoropyridin-2-yl)benzamide], the IC50 is below 100 nM.
`CC(=O)Nc1ccc(-c2cc(CN3C(=O)c4ccc(Cl)cc4NC(=O)[C@H]3Cc3ccccn3)ccc2C(=O)O)cc1` [Example 8n, (R)-4′-acetamido-5-((8-chloro-2,5-dioxo-3-(pyridin-2-ylmethyl)-2,3-dihydro-1H-benzo[e][1,4]diazepin-4(5H)-yl)methyl)-[1,1′-biphenyl]-2-carboxylic acid]: the IC50 was in the range of 100 to 999 nM.
On to `O=C(O)c1ccc(CN2C(=O)c3ccc(Cl)cc3NC(=O)[C@H]2Cc2cccnc2)cc1` [Example 2a, (R)-4-((8-Chloro-2,5-dioxo-3-(pyridin-3-ylmethyl)-2,3-dihydro-1H-benzo[e][1,4]diazepin-4(5H)-yl)methyl)benzoic Acid], for which the half-maximal inhibitory concentration (IC50) was in the range of 100 to 999 nM.
Same read-out and setting: the value for `Cc1ccnc(C(=O)c2ccc(CN3C(=O)c4ccc(Cl)cc4NC(=O)[C@H]3Cc3ccccn3)cc2)c1` [Example 11d, (R)-8-chloro-4-(4-(4-methylpicolinoyl)benzyl)-3-(pyridin-2-ylmethyl)-3,4-dihydro-1H-benzo[e][1,4]diazepine-2,5-dione] was below 100 nM.
For `O=C(Nc1ccccn1)c1ccc(CN2C(=O)c3ccc(Cl)cc3NC(=O)[C@@H]2Cc2cccnc2)cc1` [Example 35m], the IC50 was 100 to 999 nM.
For `Cc1cncc(NC(=O)c2ccc(CN3C(=O)c4ccc(Cl)cc4NC(=O)[C@H]3C)cc2)n1` [Example 5o, (R)-4-((8-chloro-3-methyl-2,5-dioxo-2,3-dihydro-1H-benzo[e][1,4]diazepin-4(5H)-yl)methyl)-N-(6-methylpyrazin-2-yl)benzamide], the IC50 is 100 to 999 nM.
As for `COc1ccc(NC(=O)c2ccc(CN3C(=O)c4ccc(Cl)cc4NC(=O)C3Cc3cnccn3)cc2)nc1` (stereo not drawn) [Example 5w, 4-((8-chloro-2,5-dioxo-3-(pyrazin-2-ylmethyl)-2,3-dihydro-1H-benzo[e][1,4]diazepin-4(5H)-yl)methyl)-N-(5-methoxypyridin-2-yl)benzamide], the IC50 was below 100 nM.
Turning to `O=C(Nc1ccccn1)c1ccc(CN2C(=O)c3ccccc3NC(=O)[C@H]2Cc2cccnc2)cc1` [Example 35g], the concentration for half-maximal inhibition (IC50) fell in the range of 100 to 999 nM.
Consider `O=C(Nc1cnccn1)c1ccc(CN2C(=O)c3ccc(Cl)cc3NC(=O)[C@H]2Cc2ccccn2)cc1` [Example 5u, (R)-4-((8-chloro-2,5-dioxo-3-(pyridin-2-ylmethyl)-2,3-dihydro-1H-benzo[e][1,4]diazepin-4(5H)-yl)methyl)-N-(pyrazin-2-yl)benzamide], for which the 50% inhibitory concentration (IC50) was below 100 nM.

Staying with this assay, now noted: read-out: TcdB UDP-Glucose hydrolysis activity (IC50, coded); UDP-Glucose hydrolysis assay, fluorescence polarization.
Regarding `O=C1Nc2cc(Cl)ccc2C(=O)N(C[C@H]2CC[C@H](C(=O)c3cccn4ccnc34)CC2)[C@@H]1Cc1ccccn1` [Example 34b], the IC50 is below 100 nM.
